# Reference: US10028902B2, “Nuclear localization of GLP-1 stimulates myocardial regeneration and reverses heart failure” (BAYLOR RESEARCH INSTITUTE, priority 2013, dated 2018)
# How the values were obtained:
# FoxO1 [1] = assay: FOXO1 inhibitor injection in rats with ADM cardiomyopathy; format: in vivo, rat; details: total dose 24 mg/kg ip
# Protocol: Animal protocol-4: Specific FOXO1 inhibitor (AS1842856, a small molecular compound from Millipore) was injected into rats with ADM cardiomyopathy to investigate if FOXO1 mediates ADM cardiomyopathy. There were 3 groups of rats as follows: (1) normal control rats, n=6; (2) ADM injection only group at total dose of 15 mg/kg/ip, 2.5 mg/kg/ip 6 times over 2 weeks, (n=6); (3) ADM at total dose of 15 mg/kg/ip, 2.5 mg/kg/ip 6 times over 2 weeks plus FOXO1 inhibitor injection (at total dose of 24 mg/kg/ip, 4 mg/kg/ip 6 times over 2 weeks (n=6). All rats were killed 4 weeks after ADM injection.
# (§1) Echocardiographic measurements of LV fractional shortening and LV posterior wall thickness were made from digital images acquired with a 12 MHz broadband transducer (S12 probe, Philips Ultrasound, Bothell, Wash.). Fractional shortening was evaluated from the following formula: FS=(LVIDd−LVIDs)/LVIDd×100.
# [2] = test system: HL-1 cardiac muscle cell line; assay: Nuclear FoxO1 in HL-1 cardiac muscle cell line treated with adriamycin (immunofluorescent staining); format: cell-based; details: 0.25, 0.5, and 1.0 μM, 48 hrs, HL-1 cells
# Protocol: The HL-1 cell line was a generous gift from Dr. William C. Claycomb^40 in Louisiana State University Medical Center, New Orleans, La. The cells were maintained in Claycomb basal medium (Sigma) supplemented with 10% fetal bovine serum, 0.1 mM norepinephrine and 2 mM L-glutamine. HL-1 cells were treated with adriamycin at 0 μM, 0.25 μM, 0.50 μM, or 1.00 μM for 48 hrs in complete growth medium, and were subjected to immunofluorescent staining.
# FoxO1 [3] = assay: Myocardial nuclear FoxO1 in adriamycin cardiomyopathy rats (western blot, qRT-PCR); format: in vivo, rat
# Protocol: Animal protocol-2: A total of 60 rats were divided into: (1) no treatment (normal control rats, n=12); (2) adriamycin (ADM)^38 injection only, at total dose of 15 mg/kg/ip, 2.5 mg/kg/ip 6 times over 2 weeks, n=12. (3) ADM plus GLP-1 peptide injection, at GLP-1 peptide fragment 7-37 human (dose of 50 nmol/kg/ip/time×6, N=12, from Sigma, St Louis, Mo.), (4) ADM injection plus UTMD-GLP1 peptide delivery (same dose of GLP-1 peptide fragment 7-37 human mixed with microbubble for UTMD), n=12; (5) ADM injection plus UTMD with pXL-BASII-CI-GLP-1/pCI-hyPB, n=12. Half rats were killed at 16 hours after last ADM injection; other half rats were killed at 4 weeks after UTMD. The thymidine analog, 5-bromo-2-deoxyuridine (BrdU) (100 mg/kg) was injected intraperitoneally 6 hours prior to euthanasia. […]
# (§2) Nuclear proteins extracts from cardiac tissue with a NE-PER Nuclear and Cytoplasmic Extraction Kit (Thermo Scientific, Rockford, Ill. 61105, USA). Protein concentrations were determined using the BCA-200 Protein Assay kit (Pierce); equal amounts of protein were separated by SDS-PAGE. […] Horseradish peroxidase secondary antibodies were used, and chemiluminescence was determined using the Super Signal West Dura detection system (Pierce); nuclear marker (lamin) was used to confirm equal loading. […]
# Topoisomerase IIβ = assay: Myocardial nuclear topoisomerase IIβ expression (western blot, qRT-PCR); format: in vivo, rat; details: ADM only or ADM plus UTMD-GLP-1NLS groups, P<0.001
# Protocol: […] Half rats were killed at 16 hours after last ADM injection; other half rats were killed at 4 weeks after UTMD. The thymidine analog, 5-bromo-2-deoxyuridine (BrdU) (100 mg/kg) was injected intraperitoneally 6 hours prior to euthanasia.
# Total RNA was isolated from 100 mg of harvested heart using the Trizol reagent (Invitrogen), according to the manufacturer's instructions and reverse-transcribed using Superscript III RT (Invitrogen). Real-time RT-qPCR analysis was performed on an ABI 7700 Sequence Detector (Applied Biosystems) using SYBR Green (RT2 SYBR Green qPCR Kit, Qiagen). Data were normalized to HKG expression (endogenous control). Changes in gene expression were normalized to control rat heart tissue. Complementary DNA PCR primer sequences information should be requested to the correspondence author.
# as §2
# [4] = test system: rat hearts with adriamycin cardiomyopathy; assay: Adriamycin cardiomyopathy in rats: gross pathology, Masson's trichrome staining, echocardiography; format: in vivo
# Protocol: Animal protocol-2: A total of 60 rats were divided into: (1) no treatment (normal control rats, n=12); (2) adriamycin (ADM)^38 injection only, at total dose of 15 mg/kg/ip, 2.5 mg/kg/ip 6 times over 2 weeks, n=12. (3) ADM plus GLP-1 peptide injection, at GLP-1 peptide fragment 7-37 human (dose of 50 nmol/kg/ip/time×6, N=12, from Sigma, St Louis, Mo.), (4) ADM injection plus UTMD-GLP1 peptide delivery (same dose of GLP-1 peptide fragment 7-37 human mixed with microbubble for UTMD), n=12; (5) ADM injection plus UTMD with pXL-BASII-CI-GLP-1/pCI-hyPB, n=12. Half rats were killed at 16 hours after last ADM injection; other half rats were killed at 4 weeks after UTMD. The thymidine analog, 5-bromo-2-deoxyuridine (BrdU) (100 mg/kg) was injected intraperitoneally 6 hours prior to euthanasia.
# Animal protocol-3: UTMD was performed after established adriamycin cardiomyopathy defined as a fractional shortening <30% by echocardiography. There were 3 groups of rats as follows: (1) normal control rats, n=6; (2) UTMD with pXL-BASII-CI-DsRed/pCI-hyPB (n=6); (3) UTMD with pXL-BASII-CI-GLP-1/pCI-hyPB (n=12). All rats were killed 4 weeks after UTMD. The thymidine analog, 5-bromo-2-deoxyuridine (BrdU) (100 mg/kg) was injected intraperitoneally 6 hours prior to euthanasia.
# Piggybac transposon donor plasmids and helper plasmids ratio (pXL-BASII-CI-GLP-1/pCI-hyPB) was 5:1. Microbubble or control solutions (0.5 ml diluted with 0.5 ml phosphate-buffered solution (PBS)) were infused over 5 min via pump (Genie, Kent Scientific, Torrington, Conn.). During the infusion, ultrasound was directed to the heart using a commercially available ultrasound transducer (S3, Sonos 5500, Philips Ultrasound, Bothell, Wash.). […]
# as §1
# [5] = intravenous infusions, patients with myocardial infarction or chronic heart failure; cited from earlier work
compound,measurement,setting,value
CCn1cc(C(=O)O)c(=O)c2c(N)c(F)c(NC3CCCCC3)cc21 [AS1842856],activation of myocardial nuclear FoxO1,"FoxO1 [1]; ADM cardiomyopathy rats, FIG. 12",able to block
same,"ADM cardiomyopathy (fractional shortening, LVPWd)",FoxO1 [1]; FIG. 12 panel A-B,reverse
"COc1cccc2c1C(=O)c1c(O)c3c(c(O)c1C2=O)C[C@@](O)(C(=O)CO)C[C@@H]3O[C@H]1C[C@H](N)[C@H](O)[C@H](C)O1 [Adriamycin, adriamycin]",overexpression of nuclear FoxO1,[2],significantly activates
same,"FoxO1 mRNA level, fold relative to normal control or normal plus UTMD-GLP-1NLS groups","FoxO1 [3]; qRT-PCR, FIG. 6B, ADM only group, or ADM after UTMD GLP-1NLS gene delivery",12.6 fold
same,FoxO1 in cardiac nuclear protein extracts,"FoxO1 [3]; western blots, FIG. 6A",significant increase
same,"TOP IIβ mRNA level in normal group, fold greater than in the treated group",Topoisomerase IIβ,18 fold
same,LV mass and wall thickness,"[4]; echocardiography, adriamycin cardiomyopathy, total dose 15 mg/kg ip",decreased
same,gross pathology of LV walls and cavities compared to normal controls,"[4]; rats with adriamycin cardiomyopathy, FIG. 2 B, C",thin LV walls and dilated LV cavities
"GLP-1 peptide fragment 7-37 human (HAEGTFTSDVSSYLEGQAAKEFIAWLVKGRG; Glucagon-like peptide 1(7-37); UniProt P01275 98-128, looked up) [GLP-1 peptide fragment 7-37 human from Sigma, injected ip]",LV mass and wall thickness in adriamycin cardiomyopathy after therapy,"[4]; echocardiography, FIGS. 4 and 11",not
GLP-1 protein: GLP-1 protein given by intravenous infusion to patients in cited studies,global LV function and the function of ischemic LV segments,[5],improved
